{"source": "patent US20260216108A1", "about": "“PHARMACEUTICAL COMPOSITION CONTAINING A MITOPHAGY INDUCER” (HANGZHOU PHECDAMED CO., LTD., priority 2023, published 2026)", "assay": "Compatibility test of API and auxiliary materials: relevant substances (impurities) by HPLC", "format": "physicochemical", "details": "for Change of relevant substance (in words): 30 days", "protocol": "4. Using HPLC method to detect the content of the sample and relevant substances.\nThe parameters of the HPLC method for the detection of the content and relevant substances are detailed in Table 2 below.\nPlacing the samples under experimental conditions of high temperature (60° C.), high humidity (92.5% RH), acceleration (40° C./75% RH) and illumination (visible light 5500 Lux±500 Lux, near ultraviolet light 85 μw/cm2), […] Submitting the samples for relevant indicator testing (test items include appearance, hygroscopic weight gain, content and relevant substances), and comparing the test results with the control samples (raw material).", "data": [{"molecule": "O=C(O)C[S+]([O-])c1cc(NS(=O)(=O)c2ccc(Br)cc2)c2ccccc2c1O", "note": "(stereo not shown) [API]", "values": [{"measurement": "% Impurities RRT0.46", "setting": "60° C., opened, 30 d", "result": "<0.05", "unit": "%"}, {"measurement": "% Impurities RRT0.89", "setting": "60° C., opened, 30 d", "result": 0.07, "unit": "%"}, {"measurement": "% Impurities RRT1.16", "setting": "60° C., opened, 30 d", "result": 0.87, "unit": "%"}, {"measurement": "% Impurities RRT1.20", "setting": "60° C., opened, 30 d", "result": 0.06, "unit": "%"}, {"measurement": "% Impurities RRT1.29", "setting": "60° C., opened, 30 d", "result": 0.18, "unit": "%"}, {"measurement": "% Impurities RRT1.33", "setting": "60° C., opened, 30 d", "result": 0.07, "unit": "%"}, {"measurement": "% Impurities RRT1.37", "setting": "60° C., opened, 30 d", "result": 0.06, "unit": "%"}, {"measurement": "% Impurities RRT1.41", "setting": "60° C., opened, 30 d", "result": "<0.05", "unit": "%"}, {"measurement": "% Impurities RRT1.73", "setting": "60° C., opened, 30 d", "result": "<0.05", "unit": "%"}, {"measurement": "% Impurities RRT1.74", "setting": "60° C., opened, 30 d", "result": 0.09, "unit": "%"}, {"measurement": "% Impurities Total", "setting": "60° C., opened, 30 d", "result": 1.40, "unit": "%"}, {"measurement": "% Impurities RRT0.46", "setting": "92.5% RH, opened, 0 d", "result": "<0.05", "unit": "%"}, {"measurement": "% Impurities RRT0.89", "setting": "92.5% RH, opened, 0 d", "result": 0.08, "unit": "%"}, {"measurement": "% Impurities RRT1.10", "setting": "92.5% RH, opened, 0 d", "result": "<0.05", "unit": "%"}, {"measurement": "% Impurities RRT1.16", "setting": "92.5% RH, opened, 0 d", "result": 0.88, "unit": "%"}, {"measurement": "% Impurities RRT1.20", "setting": "92.5% RH, opened, 0 d", "result": 0.09, "unit": "%"}, {"measurement": "% Impurities RRT1.24", "setting": "92.5% RH, opened, 0 d", "result": "<0.05", "unit": "%"}, {"measurement": "% Impurities RRT1.29", "setting": "92.5% RH, opened, 0 d", "result": 0.14, "unit": "%"}, {"measurement": "% Impurities RRT1.33", "setting": "92.5% RH, opened, 0 d", "result": 0.10, "unit": "%"}, {"measurement": "% Impurities RRT1.37", "setting": "92.5% RH, opened, 0 d", "result": 0.07, "unit": "%"}, {"measurement": "% Impurities RRT1.41", "setting": "92.5% RH, opened, 0 d", "result": "<0.05", "unit": "%"}, {"measurement": "% Impurities RRT1.43", "setting": "92.5% RH, opened, 0 d", "result": "<0.05", "unit": "%"}, {"measurement": "% Impurities RRT1.73", "setting": "92.5% RH, opened, 0 d", "result": "<0.05", "unit": "%"}, {"measurement": "% Impurities RRT1.74", "setting": "92.5% RH, opened, 0 d", "result": 0.05, "unit": "%"}, {"measurement": "% Impurities Total", "setting": "92.5% RH, opened, 0 d", "result": 1.41, "unit": "%"}, {"measurement": "% Impurities RRT0.37", "setting": "92.5% RH, opened, 10 d", "result": "<0.05", "unit": "%"}, {"measurement": "% Impurities RRT0.46", "setting": "92.5% RH, opened, 10 d", "result": 0.10, "unit": "%"}, {"measurement": "% Impurities RRT0.89", "setting": "92.5% RH, opened, 10 d", "result": 0.14, "unit": "%"}, {"measurement": "% Impurities RRT1.10", "setting": "92.5% RH, opened, 10 d", "result": "<0.05", "unit": "%"}, {"measurement": "% Impurities RRT1.16", "setting": "92.5% RH, opened, 10 d", "result": 1.63, "unit": "%"}, {"measurement": "% Impurities RRT1.20", "setting": "92.5% RH, opened, 10 d", "result": 0.07, "unit": "%"}, {"measurement": "% Impurities RRT1.21", "setting": "92.5% RH, opened, 10 d", "result": "<0.05", "unit": "%"}, {"measurement": "% Impurities RRT1.24", "setting": "92.5% RH, opened, 10 d", "result": "<0.05", "unit": "%"}, {"measurement": "% Impurities RRT1.29", "setting": "92.5% RH, opened, 10 d", "result": 0.12, "unit": "%"}, {"measurement": "% Impurities RRT1.33", "setting": "92.5% RH, opened, 10 d", "result": 0.08, "unit": "%"}, {"measurement": "% Impurities RRT1.37", "setting": "92.5% RH, opened, 10 d", "result": 0.07, "unit": "%"}, {"measurement": "% Impurities RRT1.41", "setting": "92.5% RH, opened, 10 d", "result": 0.10, "unit": "%"}, {"measurement": "% Impurities RRT1.43", "setting": "92.5% RH, opened, 10 d", "result": "<0.05", "unit": "%"}, {"measurement": "% Impurities RRT1.54", "setting": "92.5% RH, opened, 10 d", "result": 0.06, "unit": "%"}, {"measurement": "% Impurities RRT1.64", "setting": "92.5% RH, opened, 10 d", "result": 0.13, "unit": "%"}, {"measurement": "% Impurities RRT1.70", "setting": "92.5% RH, opened, 10 d", "result": "<0.05", "unit": "%"}, {"measurement": "% Impurities RRT1.73", "setting": "92.5% RH, opened, 10 d", "result": 0.41, "unit": "%"}, {"measurement": "% Impurities RRT1.74", "setting": "92.5% RH, opened, 10 d", "result": 0.08, "unit": "%"}, {"measurement": "% Impurities Total", "setting": "92.5% RH, opened, 10 d", "result": 2.99, "unit": "%"}, {"measurement": "% Impurities RRT0.37", "setting": "92.5% RH, opened, 30 d", "result": "<0.05", "unit": "%"}, {"measurement": "% Impurities RRT0.46", "setting": "92.5% RH, opened, 30 d", "result": 0.17, "unit": "%"}, {"measurement": "% Impurities RRT0.89", "setting": "92.5% RH, opened, 30 d", "result": 0.12, "unit": "%"}, {"measurement": "% Impurities RRT1.10", "setting": "92.5% RH, opened, 30 d", "result": "<0.05", "unit": "%"}, {"measurement": "% Impurities RRT1.16", "setting": "92.5% RH, opened, 30 d", "result": 1.65, "unit": "%"}, {"measurement": "% Impurities RRT1.20", "setting": "92.5% RH, opened, 30 d", "result": 0.06, "unit": "%"}, {"measurement": "% Impurities RRT1.24", "setting": "92.5% RH, opened, 30 d", "result": 0.05, "unit": "%"}, {"measurement": "% Impurities RRT1.29", "setting": "92.5% RH, opened, 30 d", "result": 0.07, "unit": "%"}, {"measurement": "% Impurities RRT1.33", "setting": "92.5% RH, opened, 30 d", "result": 0.08, "unit": "%"}, {"measurement": "% Impurities RRT1.37", "setting": "92.5% RH, opened, 30 d", "result": 0.08, "unit": "%"}, {"measurement": "% Impurities RRT1.41", "setting": "92.5% RH, opened, 30 d", "result": 0.09, "unit": "%"}, {"measurement": "% Impurities RRT1.43", "setting": "92.5% RH, opened, 30 d", "result": 0.05, "unit": "%"}, {"measurement": "% Impurities RRT1.54", "setting": "92.5% RH, opened, 30 d", "result": "<0.05", "unit": "%"}, {"measurement": "% Impurities RRT1.64", "setting": "92.5% RH, opened, 30 d", "result": 0.21, "unit": "%"}, {"measurement": "% Impurities RRT1.70", "setting": "92.5% RH, opened, 30 d", "result": 0.05, "unit": "%"}, {"measurement": "% Impurities RRT1.73", "setting": "92.5% RH, opened, 30 d", "result": 0.53, "unit": "%"}, {"measurement": "% Impurities RRT1.74", "setting": "92.5% RH, opened, 30 d", "result": 0.10, "unit": "%"}, {"measurement": "% Impurities Total", "setting": "92.5% RH, opened, 30 d", "result": 3.31, "unit": "%"}, {"measurement": "% Impurities RRT0.46", "setting": "Illumination, opened, 0 d", "result": "<0.05", "unit": "%"}, {"measurement": "% Impurities RRT0.89", "setting": "Illumination, opened, 0 d", "result": 0.08, "unit": "%"}, {"measurement": "% Impurities RRT1.16", "setting": "Illumination, opened, 0 d", "result": 0.88, "unit": "%"}, {"measurement": "% Impurities RRT1.20", "setting": "Illumination, opened, 0 d", "result": 0.09, "unit": "%"}, {"measurement": "% Impurities RRT1.29", "setting": "Illumination, opened, 0 d", "result": 0.14, "unit": "%"}, {"measurement": "% Impurities RRT1.33", "setting": "Illumination, opened, 0 d", "result": 0.10, "unit": "%"}, {"measurement": "% Impurities RRT1.37", "setting": "Illumination, opened, 0 d", "result": 0.07, "unit": "%"}, {"measurement": "% Impurities RRT1.41", "setting": "Illumination, opened, 0 d", "result": "<0.05", "unit": "%"}, {"measurement": "% Impurities RRT1.73", "setting": "Illumination, opened, 0 d", "result": "<0.05", "unit": "%"}, {"measurement": "% Impurities RRT1.74", "setting": "Illumination, opened, 0 d", "result": 0.05, "unit": "%"}, {"measurement": "% Impurities Total", "setting": "Illumination, opened, 0 d", "result": 1.41, "unit": "%"}, {"measurement": "% Impurities RRT0.46", "setting": "Illumination, opened, 10 d", "result": 0.06, "unit": "%"}, {"measurement": "% Impurities RRT0.89", "setting": "Illumination, opened, 10 d", "result": 0.17, "unit": "%"}, {"measurement": "% Impurities RRT1.16", "setting": "Illumination, opened, 10 d", "result": 0.91, "unit": "%"}, {"measurement": "% Impurities RRT1.20", "setting": "Illumination, opened, 10 d", "result": 0.08, "unit": "%"}, {"measurement": "% Impurities RRT1.29", "setting": "Illumination, opened, 10 d", "result": 0.20, "unit": "%"}, {"measurement": "% Impurities RRT1.33", "setting": "Illumination, opened, 10 d", "result": 0.09, "unit": "%"}, {"measurement": "% Impurities RRT1.37", "setting": "Illumination, opened, 10 d", "result": 0.07, "unit": "%"}, {"measurement": "% Impurities RRT1.41", "setting": "Illumination, opened, 10 d", "result": "<0.05", "unit": "%"}, {"measurement": "% Impurities RRT1.73", "setting": "Illumination, opened, 10 d", "result": 0.05, "unit": "%"}, {"measurement": "% Impurities RRT1.74", "setting": "Illumination, opened, 10 d", "result": 0.07, "unit": "%"}, {"measurement": "% Impurities Total", "setting": "Illumination, opened, 10 d", "result": 1.70, "unit": "%"}, {"measurement": "Change of relevant substance (in words)", "setting": "acceleration 40° C./75% RH, opened", "result": "increased significantly at RRT0.46, RRT1.16, RRT1.63 and RRT1.73, and increased slightly at RRT1.41 and RRT1.43"}, {"measurement": "Stability of API (summary)", "setting": "compatibility test of raw and auxiliary materials", "result": "unstable under the conditions of high humidity, illumination and acceleration"}, {"measurement": "Change of relevant substance (in words)", "setting": "high humidity 92.5% RH, opened", "result": "increased significantly at RRT0.46, RRT1.16, RRT1.64 and RRT1.73, and increased slightly at RRT1.41 and RRT1.74"}, {"measurement": "Change of relevant substance (in words)", "setting": "illumination, opened", "result": "increased slightly at RRT 0.89 and RRT 1.29"}]}]}
